Source: ChEMBL document CHEMBL1671638, “Cloning, expression, and characterization of Babesia gibsoni dihydrofolate reductase-thymidylate synthase: inhibitory effect of antifolates on its catalytic activity and parasite proliferation” (Antimicrob Agents Chemother, 2008)
Active and inactive are the calls of the source. The rule behind the calls is not given here.

Legend:
[1] = (§1) Inhibition of Babesia gibsoni Dihydrofolate reductase-thymidylate synthase expressed in Escherichia coli BL21
Babesia gibsoni [2] = experiment: as §1
Babesia gibsoni [3] = experiment: Antiparasitic activity against Babesia gibsoni infected in dog erythrocytes assessed as growth inhibition at 50 nM by Giemsa staining based microscopy; type: functional, organism-based
Babesia gibsoni [4] = experiment: Antiparasitic activity against Babesia gibsoni infected in dog erythrocytes assessed as growth inhibition at 150 nM by Giemsa staining based microscopy; type: functional, organism-based
Babesia gibsoni [5] = experiment: Antiparasitic activity against Babesia gibsoni infected in dog erythrocytes assessed as growth inhibition at 20 uM by Giemsa staining based microscopy; type: functional, organism-based
Babesia gibsoni [6] = experiment: Antiparasitic activity against Babesia gibsoni infected in dog erythrocytes assessed as growth inhibition at 80 uM by Giemsa staining based microscopy; type: functional, organism-based

| IC50 [1] [nM] | inhibition (Babesia gibsoni [2]) | Compound | inhibition (Babesia gibsoni [3]) | inhibition (Babesia gibsoni [4]) | Activity (Babesia gibsoni [5]) | Activity (Babesia gibsoni [6]) |
| --- | --- | --- | --- | --- | --- | --- |
| 68.6 | Dose-dependent effect | CN(Cc1cnc2nc(N)nc(N)c2n1)c1ccc(C(=O)N[C@@H](CCC(=O)O)C(=O)O)cc1 [METHOTREXATE] | Active | Active |  |  |
| 50 | Dose-dependent effect | CCc1nc(N)nc(N)c1-c1ccc(Cl)cc1 [PYRIMETHAMINE] |  |  | Active | Active |
| 55 | Dose-dependent effect | COc1cc(Cc2cnc(N)nc2N)cc(OC)c1OC [TRIMETHOPRIM] |  |  | Active | Active |
